In US5866540A, “Cyclic adhesion inhibitors” (Merck Patent Gesellschaft mit Beschrankter Haftung, priority 1995, dated 1999):
Where a SMILES comes first, the peptide text is derived from it. [ ]: non-standard residue; d: D form.

How the values were obtained:
αIIbβ3 = αIIbβ3 (Homo sapiens, UniProt P05106+P08514); test: Solid-phase receptor binding ELISA: competition with biotinylated fibrinogen on coated integrin receptor; conditions: ligand biotinylated fibrinogen 1 μg/ml; receptor coated at 1 μg/ml; 3 h at 30° C.; triplicates
Protocol: (§1) The effect was found by using the method of J. W. Smith, Z. M. Ruggei, T. J. Kunicki and D. A. Cheesh descibed in J. Biol. Chem. 265, 12 267-12 271 (1990).
(§2) Details of the method are as follows:
(§3) A ninety six well untreated flat bottom plate was coated with 100 μl/well of 1 μg/ml receptor (αIIβe; αVβ3) in coating buffer and incubated on a shaker at 4° C. overnight. The plate was washed 1× with binding buffer and then blocked with blocking buffer (100 μl/well for two hours at 30° C. After an additional washing with binding buffer, the biotinylated ligand and the competitor were added.
(§4) The ligand fibrinogen was used at a final concentration of 1 μg/ml. The competitor was added at increasing concentrations. Both ligand and competitor were added in volume of 50 μl/well at 2× of the final concentration diluted in binding buffer.
(§5) The plate was covered and incubated for three hours at 30° C. To remove unbound material the plate was washed 3× with binding buffer 100 μl/well.
(§6) Goat anti biotin antibody alkaline phosphatase conjugate (1:2000 dilution) in binding buffer was added (100 μl/well) and the plate was incubated for one hour at 30° C.
(§7) The plate was washed 3× with binding buffer, the substrate solution was added and developed in the dark at room temperature for 1-5 minutes.
(§8) The reaction was stopped by addition of 100 μl/well of 0.4M NaOH and read in the ELISA reader at 405 nm.
(§9) All points were run in triplicates.

αvβ3 = αvβ3 (Homo sapiens, UniProt P05106+P06756); test: as above; conditions: ligand biotinylated fibrinogen 1 μg/ml; receptor coated at 1 μg/ml; 3 h at 30° C.; triplicates
Protocol: as §1, §2, §3, §4, §5, §6, §7, §8, §9

Row | Compound | IC50 (αIIbβ3) | IC50 (αvβ3)
1 | CC(C)[C@@H]1NC(=O)[C@@H](Cc2ccccc2)NC(=O)[C@H](CC(=O)O)NC(=O)[C@H](C)NC(=O)[C@H](CCCN=C(N)N)NC1=O [cyclo(--Arg--Ala--Asp--D--Phe--Val), cyclo(-Arg-Ala-Asp-D-Phe-Val)] (cyclo(AD[dF]VR)) | > 100 µM | 0.77 µM
2 | CC(C)[C@@H]1NC(=O)[C@@H](Cc2ccccc2)NC(=O)[C@H](CC(=O)O)NC(=O)CNC(=O)[C@H](CCCNC(=N)N)NC(=O)CNC1=O [cyclo(--Arg--Gly--Asp--D--Phe--Val--Gly), cyclo(-Arg-Gly-Asp-D-Phe-Val-Gly)] (cyclo(RGD[dF]VG)) | 0.13 µM | 0.62 µM
3 | CC(C)C[C@@H]1NC(=O)[C@@H](Cc2ccccc2)NC(=O)[C@H](CC(=O)O)NC(=O)CNC(=O)[C@H](CCCNC(=N)N)NC(=O)CNC1=O [cyclo(--Arg--Gly--Asp--D--Phe--Leu--Gly), cyclo(-Arg-Gly-Asp-D-Phe-Leu-Gly)] (cyclo(GRGD[dF]L)) | 0.06 µM | 0.54 µM
4 | N=C(N)NCCC[C@@H]1NC(=O)CNC(=O)[C@H]2CCCN2C(=O)[C@H](Cc2ccccc2)NC(=O)[C@H](CC(=O)O)NC(=O)CNC1=O [cyclo(--Arg--Gly--Asp--Phe--D--Pro--Gly)] (cyclo(RGDF[dP]G)) | 1.5 µM | 1.06 µM
5 | CC(C)C[C@@H]1NC(=O)[C@@H](Cc2ccccc2)NC(=O)[C@H](CC(=O)O)NC(=O)CNC(=O)[C@H](CCCNC(=N)N)NC(=O)[C@H](C)NC1=O [cyclo(--Arg--Gly--Asp--D--Phe--Leu--Ala), cyclo(-Arg-Gly-Asp-D-Phe-Leu-Ala)] (cyclo(ARGD[dF]L)) | 0.76 µM | 1.1 µM
6 | CC(C)[C@@H]1NC(=O)[C@H](Cc2ccccc2)NC(=O)[C@H](CC(=O)O)NC(=O)[C@@H](C)NC(=O)[C@H](CCCNC(=N)N)NC1=O [cyclo(--Arg--D--Ala--Asp--Phe--Val), cyclo(-Arg-D-Ala-Asp-Phe-Val)] (cyclo(R[dA]DFV)) | > 100 µM | 52 µM
7 | CC(C)[C@@H]1NC(=O)[C@@H](Cc2ccccc2)NC(=O)[C@H](CC(=O)O)NC(=O)CNC(=O)[C@H](CCCNC(=N)N)NC(=O)[C@H](C)NC1=O [cyclo(--Arg--Gly--Asp--D--Phe--Val--Ala), cyclo(-Arg-Gly-Asp-D-Phe-Val-Ala)] (cyclo(RGD[dF]VA)) | 0.32 µM | 0.9 µM
8 | CC(C)C[C@@H]1NC(=O)[C@H](Cc2ccccc2)NC(=O)[C@H](CC(=O)O)NC(=O)CNC(=O)[C@H](CCCNC(=N)N)NC(=O)[C@@H](C)NC1=O [cyclo(--Arg--Gly--Asp--Phe--Leu--D--Ala), cyclo(-Arg-Gly-Asp-Phe-Leu-D-Ala)] (cyclo(RGDFL[dA])) | 0.76 µM | 0.31 µM
9 | C[C@@H]1NC(=O)[C@H]2CCCN2C(=O)[C@H](Cc2ccccc2)NC(=O)[C@H](CC(=O)O)NC(=O)CNC(=O)[C@H](CCCNC(=N)N)NC1=O [cyclo(--Arg--Gly--Asp--Phe--D--Pro--Ala), cyclo(-Arg-Gly-Asp-Phe-D-Pro-Ala)] (cyclo(RGDF[dP]A)) | 0.74 µM | 0.37 µM
10 | C[C@@H]1NC(=O)[C@@H]2CCCN2C(=O)[C@H](Cc2ccccc2)NC(=O)[C@H](CC(=O)O)NC(=O)CNC(=O)[C@H](CCCNC(=N)N)NC1=O [cyclo(--Arg--Gly--Asp--Phe--Pro--Ala), cyclo(-Arg-Gly-Asp-Phe-Pro-Ala)] (cyclo(RGDFPA)) | 0.62 µM | 0.48 µM

More lines, now with the values ahead:

Row | IC50 (αIIbβ3) | IC50 (αvβ3) | Compound
11 | 22 µM | 4.5 µM | CC(C)[C@@H]1NC(=O)[C@H](Cc2ccccc2)NC(=O)[C@H](CC(=O)O)NC(=O)CNC(=O)[C@@H](CCCNC(=N)N)NC(=O)[C@H](C)NC1=O [cyclo(--D--Arg--Gly--Asp--Phe--Val--Ala), cyclo(-D-Arg-Gly-Asp-Phe-Val-Ala)] (cyclo([dR]GDFVA))
12 | 1.5 µM | 0.25 µM | CC(C)[C@@H]1NC(=O)[C@H](Cc2ccccc2)NC(=O)[C@H](CC(=O)O)NC(=O)CNC(=O)[C@H](CCCNC(=N)N)NC(=O)[C@@H](C)NC1=O [cyclo(--Arg--Gly--Asp--Phe--Val--D--Ala), cyclo(-Arg-Gly-Asp-Phe-Val-D-Ala)] (cyclo(RGDFV[dA]))
13 | 20.5 µM | 1.52 µM | CC(C)[C@@H]1NC(=O)[C@H](Cc2ccccc2)NC(=O)[C@H](CC(=O)O)NC(=O)CNC(=O)[C@@H](CCCNC(=N)N)NC(=O)CNC1=O [cyclo(--D--Arg--Gly--Asp--Phe--Val--Gly), cyclo(-D-Arg-Gly-Asp-Phe-Val-Gly)] (cyclo(G[dR]GDFV))
14 | 1.53 µM | 0.16 µM | N=C(N)NCCC[C@@H]1NC(=O)CNC(=O)[C@@H]2CCCN2C(=O)[C@H](Cc2ccccc2)NC(=O)[C@H](CC(=O)O)NC(=O)CNC1=O [cyclo(--Arg--Gly--Asp--Phe--Pro--Gly), cyclo(-Arg-Gly-Asp-Phe-Pro-Gly)] (cyclo(RGDFPG))
